These results are taken from patent publication US6548515B1, “Dihydrofuro[3,4-b]quinolin-1-one compounds” (Les Laboratories Servier, priority 1999, dated 2003).

One may read the IC50 as the concentration needed to halve the response being measured.

One assay has as its system murine leukaemia, L1210. Description: Cytotoxicity in vitro (Microculture Tetrazolium Assay), L1210. It counts as cell-based. Particulars: Mus musculus, 48 h; L1210 cells, incubated 2 days, inhibition of proliferation by 50%. How it is done:
(§1) Three cell lines are used:
1 murine leukaemia, L1210,
(§2) The cells are cultured in complete RPMI 1640 culture medium containing 10% foetal calf serum, 2 mM glutamine, 50 units/ml of penicillin, 50 μg/ml of streptomycin and 10 mM Hepes, pH=7.4. The cells are distributed in microplates and exposed to the cytotoxic compounds. The cells are then incubated for 2 days (L1210) or 4 days (A549, HT29). The number of viable cells is then quantified by means of a calorimetric assay, the Microculture Tetrazolium Assay (Cancer Res. 1987, 47, 939-942).
(§3) The results are expressed as IC50, the concentration of cytotoxic agent that inhibits the proliferation of the treated cells by 50%.

For assay [1], the system named is human non-small-cell lung carcinoma, A549. Description: Cytotoxicity in vitro (Microculture Tetrazolium Assay), A549. It counts as cell-based. The following applies: 96 h, A549 cells, incubated 4 days, inhibition of proliferation by 50%. The method, then: as §1
1 human non-small-cell lung carcinoma, A549,
as §2, §3

The test system of assay [2] is human colon carcinoma, HT29. Description: Cytotoxicity in vitro (Microculture Tetrazolium Assay), HT29. The assay is classed as cell-based. The following applies: HT-29, 96 h, HT29 cells, incubated 4 days, inhibition of proliferation by 50%. How it is done: as §1
1 human colon carcinoma, HT29
as §2, §3

For the next assay, the system named is P388 (murine leukaemia). Description: In vivo anti-tumour activity on P388 leukaemia. Particulars: P388 i.p. in BDF1 mice, intraperitoneal route on day 1, active from the 50 mg/kg dose. Set-up: species or system female BDF1 mice. The method, then:
Line P388 (murine leukaemia) was supplied by the National Cancer Institute (Frederick, USA). The tumour cells (10^6 cells) were inoculated on day 0 into the peritoneal cavity of female BDF1 mice (Iffa-Credo, France) weighing from 18 to 20 g (groups of 6 animals). The products were administered by the intraperitoneal route on day 1 (D1).
The anti-tumour activity is expressed as % T/C: [formula]

Turning to `COc1cc(C2C3=C(COC3=O)N(C)c3cc4c(cc32)OCO4)cc(OC)c1OC` (racemic) [Example 1, (±)-4-Methyl-6,7-methylenedioxy-9-(3,4,5-trimethoxyphenyl)-4,9-dihydrofuro[3,4-b]quinolin-1(3H)-one], the IC50 was determined as 53 nM with murine leukaemia, L1210; 102 nM in assay [1]; 104 nM in assay [2]. The “T/C (survival of the treated animals)” value in the assay on P388 (murine leukaemia) is reported as not below 200%.

Turning to `COc1cc(CN2C3=C(C(=O)OC3)C(c3cc(OC)c(OC)c(OC)c3)c3cc4c(cc32)OCO4)cc(OC)c1O` (racemic) [Example 8, (±)-4-(3,5-Dimethoxy-4-hydroxybenzyl)-6,7-methylenedioxy-9-(3,4,5-trimethoxyphenyl)-4,9-dihydrofuro[3,4-b]quinolin-1(3H)-one], the IC50 was determined as 62 nM in the assay on murine leukaemia, L1210; 147 nM in assay [1]; 153 nM in assay [2].

Regarding `COc1cc(C2C3=C(COC3=O)Nc3cc4c(cc32)OCO4)cc(OC)c1OC` (racemic) [Example 10, (±)-6,7-Methylenedioxy-9-(3,4,5-trimethoxyphenyl)-4,9-dihydrofuro[3,4-b]quinolin-1(3H)-one], the IC50 is 12 nM in the assay on murine leukaemia, L1210; 22 nM in assay [1]; 18 nM in assay [2].
